Assays:
[1] = biological target: Botulinum neurotoxin type A (Clostridium botulinum) (UniProt P0DPI0); experiment: Inhibition of Clostridium botulinum neurotoxin A light chain at 20 uM by HPLC-based assay
[2] = biological target: Botulinum neurotoxin type A (Clostridium botulinum, UniProt P0DPI0); experiment: Inhibition of Clostridium botulinum neurotoxin A light chain by HPLC-based assay
Chain of Botulinum neurotoxin type A (P0DPI0 2-448 limits assumed): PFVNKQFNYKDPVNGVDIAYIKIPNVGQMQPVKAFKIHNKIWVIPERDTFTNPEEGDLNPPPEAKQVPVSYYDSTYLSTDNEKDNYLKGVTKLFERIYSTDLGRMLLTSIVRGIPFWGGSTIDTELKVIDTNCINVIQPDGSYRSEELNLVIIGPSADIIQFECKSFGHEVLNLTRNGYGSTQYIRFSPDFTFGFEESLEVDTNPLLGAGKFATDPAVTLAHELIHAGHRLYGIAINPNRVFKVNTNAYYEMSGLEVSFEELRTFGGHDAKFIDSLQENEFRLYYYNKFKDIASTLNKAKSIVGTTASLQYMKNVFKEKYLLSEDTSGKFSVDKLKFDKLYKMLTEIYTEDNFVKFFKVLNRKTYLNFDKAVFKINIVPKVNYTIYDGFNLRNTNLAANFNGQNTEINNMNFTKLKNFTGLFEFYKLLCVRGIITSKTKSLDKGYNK

Chain of Botulinum neurotoxin type A (Clostridium botulinum) (P0DPI0 2-448 limits assumed): as above

N=C(N)c1ccc2cc(-c3ccc(Oc4ccc(/C(N)=N/CCCNc5ccnc6cc(Cl)ccc56)cc4)cc3)[nH]c2c1
inhibition [1]: 95%
Ki [2]: 0.6 µM

N=C(N)c1ccc(Oc2ccc(-c3cc4ccc(C(=N)N)cc4[nH]3)cc2)cc1
IC50 [2]: 3 µM
Ki [2]: 10 µM

N=C(N)c1ccc(Oc2ccc(-c3cc4ccc(/C(N)=N/CCCNc5ccnc6cc(Cl)ccc56)cc4[nH]3)cc2)cc1
inhibition [1]: 95%
Ki [2]: 0.6 µM

Clc1ccc2c(NCCCNCCCNc3ccnc4cc(Cl)ccc34)ccnc2c1
inhibition [1]: 60%
